What was measured:
mouse [1] = conditions: Subchronic oral toxicity in rodents, b6c3f1, Gavage/Intubation, dose end: 14 week, group: systemic
rat [2] = conditions: Subchronic oral toxicity in rodents, fischer, Gavage/Intubation, dose end: 14 week, group: systemic
rabbit = conditions: Prenatal developmental toxicity study, new zealand white, Oral, Gavage/Intubation, dose end: 29 GD
rat [3] = conditions: Prenatal developmental toxicity study, sprague dawley, Oral, Gavage/Intubation, dose end: 19 GD
rat [4] = conditions: Combined chronic toxicity/carcinogenicity, fischer, Oral, Gavage/Intubation, dose end: 104 week, group: systemic
mouse [5] = conditions: Multigenerational reproductive toxicity study, cd1, Oral, Water, dose end: 2 generation
mouse [6] = conditions: Combined chronic toxicity/carcinogenicity, b6c3f1, Oral, Gavage/Intubation, dose end: 104 week, group: systemic
[7] = systemic / pathology microscopic / pancreas / hyperplasia + systemic / pathology microscopic / pancreas / inflammation + systemic / …
[8] = systemic / in life observation / body weight / body weight + systemic / in life observation / body weight / body weight gain + systemic / …
[9] = group: developmental, systemic / in life observation / body weight / fetal weight
[10] = group: maternal, reproductive / reproductive performance / aborted / aborted + systemic / in life observation / body weight / body weight + systemic / in …
[11] = group: developmental, developmental / developmental malformation / bone / unossified + systemic / in life observation / body weight / fetal weight
[12] = group: maternal, systemic / in life observation / body weight / body weight + systemic / in life observation / body weight / body weight gain + systemic / …
[13] = systemic / in life observation / body weight / body weight
[14] = systemic / in life observation / body weight / body weight + systemic / pathology microscopic / pancreas / atrophy
[15] = group: offspring, systemic / in life observation / body weight / offspring (pup) weight + systemic / in life observation / food consumption / food consumption…
[16] = group: parental, systemic / in life observation / body weight / body weight + systemic / organ weight / ovary / relative to body weight + systemic / organ …
[17] = group: parental, systemic / in life observation / water consumption / water consumption
[18] = group: reproductive, reproductive / offspring survival early / litter size / litter size + reproductive / reproductive performance / estrous cycle / length + …
[19] = systemic / pathology microscopic / pancreas / hyperplasia

SMILES: NC=O [Formamide]
- LEL (mouse [1]; systemic / in life observation / body weight / body weight gain + systemic / hematology / platelet / platelet): 40 mg/kg/day
- LOAEL (mouse [1]; systemic / pathology microscopic / pancreas / hyperplasia + systemic / pathology microscopic / pancreas / inflammation + systemic / in life …): 80 mg/kg/day
- NEL (mouse [1]; [7]): 20 mg/kg/day
- NOAEL (mouse [1]; [7]): 40 mg/kg/day
- LEL (rat [2]; systemic / in life observation / body weight / body weight + systemic / hematology / [other] / [other] + systemic / hematology / erythrocyte…): 40 mg/kg/day
- LOAEL (rat [2]; systemic / in life observation / body weight / body weight + systemic / in life observation / body weight / body weight gain): 80 mg/kg/day
- NEL (rat [2]; [8]): 20 mg/kg/day
- NOAEL (rat [2]; [8]): 40 mg/kg/day
- LEL (rabbit; [9]): 140 mg/kg/day
- LOAEL (rabbit; [9]): > 140 mg/kg/day
- NEL (rabbit; [9]): 70 mg/kg/day
- NOAEL (rabbit; [9]): ≥ 140 mg/kg/day
- LEL (rabbit; [10]): 140 mg/kg/day
- LOAEL (rabbit; [10]): > 140 mg/kg/day
- NEL (rabbit; [10]): 70 mg/kg/day
- NOAEL (rabbit; [10]): ≥ 140 mg/kg/day
- LEL (rat [3]; [11]): 100 mg/kg/day
- LOAEL (rat [3]; [11]): > 200 mg/kg/day
- NEL (rat [3]; [11]): 50 mg/kg/day
- NOAEL (rat [3]; [11]): ≥ 200 mg/kg/day
- LEL (rat [3]; [12]): 200 mg/kg/day
- LOAEL (rat [3]; [12]): > 200 mg/kg/day
- NEL (rat [3]; [12]): 100 mg/kg/day
- NOAEL (rat [3]; [12]): ≥ 200 mg/kg/day
- LEL (rat [4]; [13]): 40 mg/kg/day
- LOAEL (rat [4]; [13]): 80 mg/kg/day
- NEL (rat [4]; [14]): 20 mg/kg/day
- NOAEL (rat [4]; [14]): 40 mg/kg/day
- LOAEL (mouse [5]; [15]): > 190 mg/kg/day
- NEL (mouse [5]; [15]): 26 mg/kg/day
- NOAEL (mouse [5]; [15]): ≥ 190 mg/kg/day
- LEL (mouse [5]; group: offspring, systemic / in life observation / food consumption / food consumption): 87 mg/kg/day
- LOAEL (mouse [5]; [16]): > 190 mg/kg/day
- NOAEL (mouse [5]; [16]): ≥ 190 mg/kg/day
- LEL (mouse [5]; [17]): 24 mg/kg/day
- NEL (mouse [5]; [17]): < 24 mg/kg/day
- LEL (mouse [5]; [18]): 190 mg/kg/day
- LOAEL (mouse [5]; [18]): > 190 mg/kg/day
- NEL (mouse [5]; [18]): 87 mg/kg/day
- NOAEL (mouse [5]; [18]): ≥ 190 mg/kg/day
- LOAEL (mouse [6]; [13]): 80 mg/kg/day
- NOAEL (mouse [6]; systemic / in life observation / body weight / body weight + systemic / pathology microscopic / liver / adenoma/carcinoma combined + …): 40 mg/kg/day
- LEL (mouse [6]; [19]): 20 mg/kg/day
- NEL (mouse [6]; [19]): < 20 mg/kg/day

Source: EPA's ToxRefDB 2
